This is an account of results in patent US20090291945A1, “CYSTEINE PROTEASE INHIBITORS” (Teijin Pharma Limited, priority 2008, published 2009).

Data set [1] addresses T1, cathepsin K (Homo sapiens, UniProt P43235).
T1 construct: the active enzyme was obtained as the enzyme fraction by using detergent containing lysis buffer; made in house; host or cells: HEK293T (GenHunter Corporation), transient expression; detergent lysate used as enzyme fraction
T1 sequence (P43235 115-329): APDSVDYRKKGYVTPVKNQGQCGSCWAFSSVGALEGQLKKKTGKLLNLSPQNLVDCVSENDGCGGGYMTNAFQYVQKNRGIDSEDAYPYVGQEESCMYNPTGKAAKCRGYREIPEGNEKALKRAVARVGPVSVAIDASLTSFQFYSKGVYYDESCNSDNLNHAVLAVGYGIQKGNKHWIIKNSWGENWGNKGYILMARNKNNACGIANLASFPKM
Description: Cathepsin K inhibitory activity (fluorescent substrate Z-Leu-Arg-MCA). The data set is classed as biochemical. To be noted: enzyme expressed in HEK293T, 15 min preincubation, 30 min reaction at room temperature, pH 5.5; for IC50: read-out: Activity Intensity (cathepsin K inhibitory activity, pIC50 class) (converted). In outline: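 Enzyme was HEK293T-expressed cathepsin K in pH 5.5 acetate buffer with 2 mM DTT, preincubated 15 min at room temperature with compound. Reaction started with Z-Leu-Arg-MCA (solution prepared at 10 μM), run 30 min, and AMC fluorescence read at 355/460 nm. IC50 taken from the curve of % inhibition vs DMSO.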

The nature of data set [2]: Metabolic stability test using human liver microsome. In kind it is in vitro ADME. To be noted: NADPH, 37° C., 25 minutes versus 0 minute, LC/MS peak area. On the procedure: For the compounds synthesized according to the method of the above Examples and the compounds of formula (B) (the compounds disclosed in WO2002/070517), the metabolic stability test using the human liver microsome was performed and the residual rate of each compound was calculated.
To a human liver microsome solution (950 μL) was added a test compound solution (10 μL, 100 μM, acetonitrile solution) on an ice bath and the solution was divided into two equal parts, solution A and solution B. Note that the composition of the human liver microsome solution was as follows.
20 mg/mL protein human liver microsome (Xenotech LLC Lenexa, US): 10 μL 500 mM potassium phosphate buffer solution (pH 7.4): 200 μL 10 mM EDTA solution: 100 μL 60 mM MgCl2 solution: 50 μL 100 mM glucose-6-phosphate solution: 50 μL 100 I.U./mL glucose-6-phosphate dehydrogenase solution: 10 μL purified water: 530 μL
To the solution A (480 μL) was added acetonitrile (500 μL) on an ice bath, and then 25 mM NADPH solution (20 μL) was added. After vortexing, the mixture was centrifuged (3,000 rpm) at 4° C. for 10 minutes, and the supernatant was taken as the sample at the reaction time of 0 minute.
To the solution B (480 μL) was added 25 mM NADPH solution (20 μL). The mixture was incubated at 37° C. for 25 minutes. The reaction was quenched with acetonitrile (500 μL) and vortexing. The mixture was centrifuged (3,000 rpm) at 4° C. for 10 minutes, and the supernatant was taken as the sample at the reaction time of 25 minutes.
LC/MS measurement was performed for the samples at the reaction time of 0 minute and the reaction time of 25 minutes. Based on the peak area of the target molecular weight in the MS measurement, the residual rate of the sample at the reaction time of 25 minutes to the sample at the reaction time of 0 minute was calculated in percentage.
For orientation: Microsomes from liver hold many membrane-bound enzymes, among them those of drug oxidation.

A value given as a limit tells only on which side of the number the result lay.

As for `CC(C)(F)C[C@H](N[C@@H](c1ccccc1)C(F)(F)F)C(=O)N[C@@H](CCCC(=O)O)CNc1ccc(N2CCOCC2)cc1` [Compound 160, (5S)-5-{(2S)-2-[((1S)-2,2,2-trifluoro-1-phenylethyl)amino]-4-fluoro-4-methylpentanoylamino}-6-[(4-morpholin-4-ylphenyl)amino]hexanoic acid], the IC50 in data set [1] was at most 3.16 nM. Also, the “Residual Rate at 25 minutes (%)” value in data set [2] turned out to be 90%.
`CC[C@@H](CNc1ccc(-c2ccccc2)cc1)NC(=O)[C@H](CC(C)C)N[C@@H](c1ccc(OC)nc1)C(F)(F)F` [Compound 46]: the IC50 in data set [1] was 31.6 to 10000 nM. The “Residual Rate at 25 minutes (%)” value in data set [2] is given as 65%.
The corresponding values for `CC[C@@H](CNc1ccc(OC)cc1OC)NC(=O)[C@H](CC(C)(C)F)N[C@@H](c1ccc(-c2ccc(S(C)(=O)=O)cc2)cc1)C(F)(F)F` [Compound 5, (2S)—N-((1S)-1-{[(2,4-dimethoxyphenyl)amino]methyl}propyl)-2-[((1S)-2,2,2-trifluoro-1-{4-[4-(methylsulfonyl)phenyl]phenyl}ethyl)amino]-4-fluoro-4-methylpentanamide] are at most 3.16 nM and 0%.
The corresponding values for `CC[C@@H](CNc1ccc(N2CCC[C@H](C(=O)O)C2)cc1)NC(=O)[C@H](CC(C)(C)F)N[C@@H](c1ccccc1)C(F)(F)F` [Compound 151] are at most 3.16 nM and 90%.
`CC[C@@H](CNc1ccc(N2CCC[C@H](C(=O)O)C2)cc1)NC(=O)[C@H](CC(C)C)N[C@@H](c1ccccc1)C(F)(F)F` [Compound 148]: the IC50 in data set [1] is at most 3.16 nM. Besides, the “Residual Rate at 25 minutes (%)” value in data set [2] amounted to 85%.
Take `CC(C)(F)C[C@H](N[C@@H](c1ccccc1)C(F)(F)F)C(=O)N[C@@H](CCN)CNc1ccc(N2CCOCC2)cc1` [Compound 130]: in data set [1], the IC50 was 3.16 to 31.6 nM. In addition, the “Residual Rate at 25 minutes (%)” value in data set [2] was 85%.
With `CC[C@@H](CNc1ccc(OC2(C(=O)O)CC2)cc1OC)NC(=O)[C@H](CC(C)(C)F)N[C@@H](c1ccccc1)C(F)(F)F` [Compound 118], the IC50 in data set [1] is at most 3.16 nM. Besides, the “Residual Rate at 25 minutes (%)” value in data set [2] is reported as 76%.
As to `CC(C)C[C@H](N[C@@H](c1ccccc1)C(F)(F)F)C(=O)N[C@@H](CCCCN)CNc1ccc(N2CCOCC2)cc1` [Compound 126], the IC50 in data set [1] is at most 3.16 nM. Further, in data set [2], the “Residual Rate at 25 minutes (%)” value worked out at 90%.
`CC[C@@H](CNc1ccc(OC(C)C(=O)O)cc1OC)NC(=O)[C@H](CC(C)(C)F)N[C@@H](c1ccccc1)C(F)(F)F` (stereo partly shown) [Compound 142]: the “Activity Intensity (cathepsin K inhibitory activity, pIC50 class)” value in data set [1] was “++ (7.5≦pIC50<8.5: ++)”. The “Residual Rate at 25 minutes (%)” value in data set [2] was found to be 96%.
With `CC[C@@H](CNc1ccc(OC2(C(=O)O)CC2)cc1OC)NC(=O)[C@H](CC(C)C)N[C@@H](Cc1ccccc1)C(F)(F)F` [Compound 124], the IC50 in data set [1] was 3.16 to 31.6 nM. Also, the “Residual Rate at 25 minutes (%)” value in data set [2] was determined as 87%.
On to `COc1ccc(NC[C@H](CCS(C)(=O)=O)NC(=O)[C@H](CC(C)C)N[C@@H](c2ccc(=O)[nH]c2)C(F)(F)F)c(OC)c1` [Compound 81], for which, in data set [1], the IC50 is 31.6 to 10000 nM. In data set [2], the “Residual Rate at 25 minutes (%)” value is 41%.
The corresponding values for `CN(C)C[C@@H](CNc1ccc(N2CCOCC2)cc1)NC(=O)[C@H](CC(C)(C)F)N[C@@H](c1ccccc1)C(F)(F)F` [Compound 107] are at most 3.16 nM and 50%.
On to `CC[C@@H](CNc1ccc(OCC(=O)O)cc1OC)NC(=O)[C@H](CC(C)C)N[C@@H](c1cccnc1)C(F)(F)F` [Compound 121], for which, in data set [1], the IC50 was 3.16 to 31.6 nM. In data set [2], the “Residual Rate at 25 minutes (%)” value is recorded as 105%.
The like results for `CC(C)C[C@H](N[C@@H](c1ccccc1)C(F)(F)F)C(=O)N[C@@H](CCCC(=O)O)CNc1ccc(N2CCOCC2)cc1` [Compound 159, (5S)-5-{(2S)-2-[((1S)-2,2,2-trifluoro-1-phenylethyl)amino]-4-methylpentanoylamino}-6-[(4-morpholin-4-ylphenyl)amino]hexanoic acid] were, in that order, at most 3.16 nM and 100%.
For `CC[C@@H](CNc1ccc(N2CCOCC2)cc1)NC(=O)[C@H](CC(C)C)N[C@@H](c1ccc(F)cc1)C(F)(F)F` [Compound 36], the IC50 in data set [1] is at most 3.16 nM. Also, in data set [2], the “Residual Rate at 25 minutes (%)” value is recorded as 0%.
On to `CC(C)C[C@H](N[C@@H](c1ccccc1)C(F)(F)F)C(=O)N[C@@H](CCCNC(=N)N)CNc1ccc(N2CCOCC2)cc1` [Compound 101], for which the IC50 in data set [1] is at most 3.16 nM. The “Residual Rate at 25 minutes (%)” value in data set [2] turned out to be 67%.
Turning to `CC[C@@H](CNc1ccc(N2CCC[C@@H](C(=O)O)C2)cc1)NC(=O)[C@H](CC(C)C)N[C@@H](c1ccccc1)C(F)(F)F` [Compound 149], the IC50 in data set [1] is at most 3.16 nM. Further, the “Residual Rate at 25 minutes (%)” value in data set [2] is on record as 87%.
